Laboratory results as given in patent publication US11912682B2, “Isoindolinone compounds” (Monte Rosa Therapeutics, Inc., priority 2021, dated 2024).
Read-outs that look alike come from different tables or passages of the source.

How the values were obtained:
[1] = biological target: T1, GSPT1 (Homo sapiens (Human), UniProt P15170+Q96SW2); test: immunofluorescence assay for GSPT1 degradation in CAL-51 cells (Example 4); type: cell-based
Outline: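 CAL-51 cells on fibronectin-coated plates were treated 6 h with serial dilutions (30 μM to 0.1 nM), then fixed and immunostained for GSPT1 with DAPI and phalloidin counterstains. Per-cell mean GSPT1 intensity from high-content imaging, normalized to controls; DC50 by non-linear regression.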
Target sequence in this assay (P15170 whole entry): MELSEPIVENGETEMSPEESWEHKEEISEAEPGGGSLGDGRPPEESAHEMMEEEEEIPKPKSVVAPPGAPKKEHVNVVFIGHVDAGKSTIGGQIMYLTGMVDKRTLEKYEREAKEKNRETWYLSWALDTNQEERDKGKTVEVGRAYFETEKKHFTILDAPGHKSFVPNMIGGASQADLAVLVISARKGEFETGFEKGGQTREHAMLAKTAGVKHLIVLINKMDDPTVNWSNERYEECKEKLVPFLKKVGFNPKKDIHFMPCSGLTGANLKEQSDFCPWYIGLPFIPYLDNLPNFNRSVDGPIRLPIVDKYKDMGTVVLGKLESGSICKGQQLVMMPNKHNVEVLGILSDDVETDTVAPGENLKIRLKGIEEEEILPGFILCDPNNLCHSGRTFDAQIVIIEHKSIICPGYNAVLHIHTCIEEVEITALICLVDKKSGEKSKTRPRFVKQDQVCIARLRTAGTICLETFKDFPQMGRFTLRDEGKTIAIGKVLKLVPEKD
Target sequence in this assay (Q96SW2 whole entry): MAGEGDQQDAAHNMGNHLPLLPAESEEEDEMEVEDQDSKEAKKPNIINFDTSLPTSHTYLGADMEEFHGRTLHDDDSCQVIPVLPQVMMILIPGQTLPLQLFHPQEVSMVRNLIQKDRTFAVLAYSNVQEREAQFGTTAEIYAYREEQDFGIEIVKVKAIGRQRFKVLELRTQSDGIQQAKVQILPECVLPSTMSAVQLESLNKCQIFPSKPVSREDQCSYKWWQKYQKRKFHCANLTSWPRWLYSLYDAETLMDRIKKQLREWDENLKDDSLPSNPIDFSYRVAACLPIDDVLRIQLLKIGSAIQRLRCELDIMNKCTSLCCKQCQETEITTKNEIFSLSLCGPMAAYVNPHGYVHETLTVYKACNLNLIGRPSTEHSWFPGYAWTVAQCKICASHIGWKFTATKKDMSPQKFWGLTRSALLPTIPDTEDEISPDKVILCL
Target sequence in this assay (Q16531 2-1140 partner): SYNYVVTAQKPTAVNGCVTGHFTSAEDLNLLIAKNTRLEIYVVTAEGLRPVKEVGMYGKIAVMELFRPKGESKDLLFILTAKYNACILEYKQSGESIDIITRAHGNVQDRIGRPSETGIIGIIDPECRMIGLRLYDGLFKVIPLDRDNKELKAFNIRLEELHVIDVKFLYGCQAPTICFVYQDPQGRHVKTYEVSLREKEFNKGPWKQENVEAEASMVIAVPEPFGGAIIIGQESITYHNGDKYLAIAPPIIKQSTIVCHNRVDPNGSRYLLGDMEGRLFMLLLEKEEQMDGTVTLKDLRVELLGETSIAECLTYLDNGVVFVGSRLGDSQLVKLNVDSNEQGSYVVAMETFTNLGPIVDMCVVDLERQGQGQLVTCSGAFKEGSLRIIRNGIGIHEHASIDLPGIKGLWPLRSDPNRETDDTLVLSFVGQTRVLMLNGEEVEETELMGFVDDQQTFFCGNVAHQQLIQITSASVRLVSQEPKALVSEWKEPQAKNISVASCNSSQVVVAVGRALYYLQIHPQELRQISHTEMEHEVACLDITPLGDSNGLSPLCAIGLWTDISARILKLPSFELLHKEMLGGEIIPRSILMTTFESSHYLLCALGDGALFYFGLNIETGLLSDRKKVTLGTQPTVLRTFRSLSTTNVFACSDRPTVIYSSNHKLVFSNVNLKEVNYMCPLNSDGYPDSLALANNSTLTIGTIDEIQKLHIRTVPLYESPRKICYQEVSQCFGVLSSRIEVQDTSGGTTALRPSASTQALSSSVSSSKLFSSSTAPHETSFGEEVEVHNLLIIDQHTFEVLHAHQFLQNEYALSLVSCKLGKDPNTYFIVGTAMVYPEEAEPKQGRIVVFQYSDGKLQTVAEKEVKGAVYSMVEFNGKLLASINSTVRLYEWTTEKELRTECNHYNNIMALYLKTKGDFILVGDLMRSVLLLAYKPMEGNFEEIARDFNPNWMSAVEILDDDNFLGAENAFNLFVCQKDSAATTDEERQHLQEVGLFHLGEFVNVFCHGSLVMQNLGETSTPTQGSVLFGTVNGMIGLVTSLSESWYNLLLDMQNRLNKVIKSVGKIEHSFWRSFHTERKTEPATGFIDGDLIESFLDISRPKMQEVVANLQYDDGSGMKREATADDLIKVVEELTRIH

[2] = biological target: ZFP91 (Homo sapiens (Human), UniProt Q96JP5); test: selectivity by Western blot in MM1S cells, ZFP91; type: cell-based; set-up: key: A represents a no degradation observed at 30 μM; B represents trace degradation at 30 μM (below 20%); C represents weak degradation at 30 μM (below 50%); D represents degradation at 30 μM (>90%); E represents degradation at 3 μM (>90%); F represents degradation at 0.3 μM (>90%); conditions: 6 hours, 0.3, 3 and 30 μM
Sequence of ZFP91 (Q96JP5 whole entry, looked up): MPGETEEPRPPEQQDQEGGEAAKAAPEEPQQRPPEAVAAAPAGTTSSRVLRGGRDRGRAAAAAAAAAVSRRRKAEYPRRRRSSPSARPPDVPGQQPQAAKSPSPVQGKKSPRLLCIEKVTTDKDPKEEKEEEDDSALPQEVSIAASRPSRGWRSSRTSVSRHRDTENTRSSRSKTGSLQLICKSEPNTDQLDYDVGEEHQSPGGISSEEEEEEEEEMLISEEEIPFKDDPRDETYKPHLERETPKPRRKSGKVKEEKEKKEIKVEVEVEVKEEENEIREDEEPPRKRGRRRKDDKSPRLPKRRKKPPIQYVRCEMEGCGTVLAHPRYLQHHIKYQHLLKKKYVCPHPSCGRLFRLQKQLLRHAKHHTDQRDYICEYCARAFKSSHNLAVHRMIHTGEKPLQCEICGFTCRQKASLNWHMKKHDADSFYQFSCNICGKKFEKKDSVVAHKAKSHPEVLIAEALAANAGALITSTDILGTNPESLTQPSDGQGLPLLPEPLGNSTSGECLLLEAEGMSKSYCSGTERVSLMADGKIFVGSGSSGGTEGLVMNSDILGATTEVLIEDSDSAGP
Description: MM1S cells were purchased from ATCC (cat. Number CRL-2974), sub-cultured in 90% RPMI 1640 with 10% FBS, supplemented with 1× P/S and incubated at 37° C., 5% CO2. Compounds were stored as 10 mM DMSO stock. For the assay, MM1S cells (3 million cells/well) were plated in 6-well plates and incubated over night. Cells were treated with respective compounds using a serial dilution: 0.3 μM, 3 μM and 30 μM as well as a vehicle only (DMSO) control for 6 hours. Media with suspension cells was subsequently transferred to 15 mL conical tubes, wells rinsed twice with ice-cold PBS and merged with cell suspension in respective 15 mL conical tube. Cells were spinned down, supernatant aspirated, pellets resuspended in ice-cold PBS and transferred to microtubes. Cells were spinned down, supernatant aspirated and pellets resuspended in 120 μL RIPA lysis buffer supplemented with protease and phosphatase inhibitors. Cell lysates were incubated on ice for 20 minutes followed by centrifugation at >20,000 xg for 5 min. Supernatants were transferred to fresh microtubes and stored at −80° C. Total protein concentration was determined using a BCA assay with a BSA standard curve and concentration of all samples was adjusted to 1 mg/mL. 25 μL 4× LDS sample buffer supplemented with 100 mM DTT was added to 75 μL sample. Samples were centrifuged (8,000 xg, 1 min) and incubated at 95° C. for 5 min followed by another centrifugation step (8,000 xg, 1 min). 20 μL of each sample was loaded on a 4-12% gel alongside a protein molecular weight marker. Gels were run in the presence of MOPS buffer at 80 Volts for 30 min, followed by 120 Volts for 1.5 h and proteins subsequently transferred onto nitrocellulose membranes at 20 Volts for 7 min using an iBlot2 Gel Transfer Device. Membranes were then cut horizontally into two pieces, covering 80-50 kDa and 50-25 kDa. Blocking the membranes was performed by gently shaking in 5% (w/v) skim milk in TSB-T for 1 hr at room temperature. All primary antibodies were used at a 1/1000 in 5% (w/v) BSA dissolved in TBST and incubated with membranes over night at 4° C. Anti-IKZF1 (Ikaros; D6N9Y; 14859S), anti-IKZF3 (Aiolos; D1C1E; 15103S) antibodies were purchased from Cell Signalling Technology, anti-ZFP91 antibody from Bethyl laboratories, anti-GSPT1 from Sigma Aldrich (HPA052488) and anti CK1alpha from AbCam (ab206652). After three washes with 1× TBST for 5 min, HRP-coupled secondary antibodies diluted in 5% (w/v) BSA/TBST (Goat Anti-Rb IgG, dil. 1/10,000; Goat Anti-Mouse IgG, dil. 1/5000) were added for 1 hr at room temperature. […] Chemiluminescence signals were then detected using a LAS-4000 system with default settings and signals quantified using Image Studio Lite software (version 5.2). […]

[3] = biological target: IKZF3 (Aiolos) (Homo sapiens (Human), UniProt Q9UKT9); test: selectivity by Western blot in MM1S cells, IKZF3; type: cell-based; set-up: key to IKZF3 degradation: A represents a no degradation observed at 30 μM; B represents trace degradation at 30 μM (below 20%); C represents weak degradation at 30 μM (below 50%); D represents degradation at 30 μM (>90%); E represents degradation at 3 μM (>90%); F represents degradation at 0.3 μM (>90%); conditions: MM1S cells, 6 hours, 0.3, 3 and 30 μM
Sequence of IKZF3 (Aiolos) (Q9UKT9 whole entry, looked up): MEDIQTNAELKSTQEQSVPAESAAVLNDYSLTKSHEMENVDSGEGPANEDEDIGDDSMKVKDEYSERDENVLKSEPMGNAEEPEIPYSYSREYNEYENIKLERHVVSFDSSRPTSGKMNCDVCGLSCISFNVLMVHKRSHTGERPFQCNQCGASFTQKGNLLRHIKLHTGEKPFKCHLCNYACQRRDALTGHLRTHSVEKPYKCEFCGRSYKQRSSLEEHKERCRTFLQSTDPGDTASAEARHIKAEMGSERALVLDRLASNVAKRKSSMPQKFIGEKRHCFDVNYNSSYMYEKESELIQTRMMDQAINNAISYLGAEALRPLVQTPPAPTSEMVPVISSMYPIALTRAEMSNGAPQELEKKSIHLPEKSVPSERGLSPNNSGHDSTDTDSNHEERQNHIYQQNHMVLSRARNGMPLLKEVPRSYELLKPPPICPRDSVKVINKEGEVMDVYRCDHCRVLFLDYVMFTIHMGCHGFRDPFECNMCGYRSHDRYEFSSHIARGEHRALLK
Description: (§1) MM1S cells were purchased from ATCC (cat. Number CRL-2974), sub-cultured in 90% RPMI 1640 with 10% FBS, supplemented with 1× P/S and incubated at 37° C., 5% CO2. Compounds were stored as 10 mM DMSO stock. For the assay, MM1S cells (3 million cells/well) were plated in 6-well plates and incubated over night. Cells were treated with respective compounds using a serial dilution: 0.3 μM, 3 μM and 30 μM as well as a vehicle only (DMSO) control for 6 hours. Media with suspension cells was subsequently transferred to 15 mL conical tubes, wells rinsed twice with ice-cold PBS and merged with cell suspension in respective 15 mL conical tube. Cells were spinned down, supernatant aspirated, pellets resuspended in ice-cold PBS and transferred to microtubes. Cells were spinned down, supernatant aspirated and pellets resuspended in 120 μL RIPA lysis buffer supplemented with protease and phosphatase inhibitors. Cell lysates were incubated on ice for 20 minutes followed by centrifugation at >20,000 xg for 5 min. Supernatants were transferred to fresh microtubes and stored at −80° C. Total protein concentration was determined using a BCA assay with a BSA standard curve and concentration of all samples was adjusted to 1 mg/mL. 25 μL 4× LDS sample buffer supplemented with 100 mM DTT was added to 75 μL sample. Samples were centrifuged (8,000 xg, 1 min) and incubated at 95° C. for 5 min followed by another centrifugation step (8,000 xg, 1 min). 20 μL of each sample was loaded on a 4-12% gel alongside a protein molecular weight marker. Gels were run in the presence of MOPS buffer at 80 Volts for 30 min, followed by 120 Volts for 1.5 h and proteins subsequently transferred onto nitrocellulose membranes at 20 Volts for 7 min using an iBlot2 Gel Transfer Device. Membranes were then cut horizontally into two pieces, covering 80-50 kDa and 50-25 kDa. Blocking the membranes was performed by gently shaking in 5% (w/v) skim milk in TSB-T for 1 hr at room temperature. All primary antibodies were used at a 1/1000 in 5% (w/v) BSA dissolved in TBST and incubated with membranes over night at 4° C. Anti-IKZF1 (Ikaros; D6N9Y; 14859S), anti-IKZF3 (Aiolos; D1C1E; 15103S) antibodies were purchased from Cell Signalling Technology, anti-ZFP91 antibody from Bethyl laboratories, anti-GSPT1 from Sigma Aldrich (HPA052488) and anti CK1alpha from AbCam (ab206652). After three washes with 1× TBST for 5 min, HRP-coupled secondary antibodies diluted in 5% (w/v) BSA/TBST (Goat Anti-Rb IgG, dil. 1/10,000; Goat Anti-Mouse IgG, dil. 1/5000) were added for 1 hr at room temperature. After three washes with 1× TBST (5 minutes each), membranes were incubated with ECL reagent for 1 min at room temperature. Chemiluminescence signals were then detected using a LAS-4000 system with default settings and signals quantified using Image Studio Lite software (version 5.2). Membrane parts previously incubated with antibody against CK1alpha were stripped off antibodies by incubating with stripping buffer for 30 minutes followed by three washed with TBST (5 min each), blocking with 5% (w/v) skim milk for 1 hr, and incubation with primary antibody against GAPDH overnight at 4° C. Subsequent washes, incubation with secondary antibody and signal acquisition were performed as described above.

[4] = biological target: T1, GSPT1; test: selectivity by Western blot in MM1S cells, GSPT1; type: cell-based; conditions: MM1S cells, 6 hours, 0.3, 3 and 30 μM
Description: as §1
Target sequence in this assay (P15170 whole entry, looked up): as the sequence (P15170 whole entry) above
Target sequence in this assay (Q96SW2 whole entry, looked up): as the sequence (Q96SW2 whole entry) above
Target sequence in this assay (Q16531 whole entry partner, looked up): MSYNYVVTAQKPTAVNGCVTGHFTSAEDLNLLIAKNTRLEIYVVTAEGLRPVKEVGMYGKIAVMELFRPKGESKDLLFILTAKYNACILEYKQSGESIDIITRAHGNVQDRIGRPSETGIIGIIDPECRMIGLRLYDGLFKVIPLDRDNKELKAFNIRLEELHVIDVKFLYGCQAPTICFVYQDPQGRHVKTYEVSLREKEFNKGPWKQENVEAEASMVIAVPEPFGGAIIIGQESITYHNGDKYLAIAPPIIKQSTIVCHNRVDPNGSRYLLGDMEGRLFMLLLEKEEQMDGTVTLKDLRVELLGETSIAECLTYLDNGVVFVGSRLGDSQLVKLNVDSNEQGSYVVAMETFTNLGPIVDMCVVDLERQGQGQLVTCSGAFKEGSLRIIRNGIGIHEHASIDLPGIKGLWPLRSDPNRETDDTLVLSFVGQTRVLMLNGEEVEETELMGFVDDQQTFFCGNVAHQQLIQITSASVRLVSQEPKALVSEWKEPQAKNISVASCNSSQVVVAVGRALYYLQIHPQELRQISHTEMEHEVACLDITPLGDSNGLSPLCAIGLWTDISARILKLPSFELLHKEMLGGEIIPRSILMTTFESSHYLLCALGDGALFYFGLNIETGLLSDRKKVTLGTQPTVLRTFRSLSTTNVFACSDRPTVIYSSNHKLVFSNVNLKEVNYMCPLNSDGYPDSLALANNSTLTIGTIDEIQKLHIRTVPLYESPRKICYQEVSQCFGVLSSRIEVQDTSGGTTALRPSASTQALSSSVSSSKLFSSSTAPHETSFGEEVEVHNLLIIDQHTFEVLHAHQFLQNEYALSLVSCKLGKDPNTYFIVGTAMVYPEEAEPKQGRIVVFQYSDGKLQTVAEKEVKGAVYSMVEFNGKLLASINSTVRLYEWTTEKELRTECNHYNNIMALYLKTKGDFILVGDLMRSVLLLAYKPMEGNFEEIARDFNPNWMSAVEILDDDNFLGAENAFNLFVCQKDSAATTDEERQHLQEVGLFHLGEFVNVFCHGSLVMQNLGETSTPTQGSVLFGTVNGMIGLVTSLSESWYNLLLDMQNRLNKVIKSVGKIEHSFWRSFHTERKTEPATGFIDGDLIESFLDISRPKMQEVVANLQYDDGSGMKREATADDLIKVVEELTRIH

[5] = biological target: IKZF1 (Ikaros) (Homo sapiens (Human), UniProt Q13422); test: selectivity by Western blot in MM1S cells, IKZF1; type: cell-based; set-up: key to IKZF1 degradation: A represents a no degradation observed at 30 μM; B represents trace degradation at 30 μM (below 20%); C represents weak degradation at 30 μM (below 50%); D represents degradation at 30 μM (>90%); E represents degradation at 3 μM (>90%); F represents degradation at 0.3 μM (>90%); conditions: MM1S cells, 6 hours, 0.3, 3 and 30 μM
Sequence of IKZF1 (Ikaros) (Q13422 whole entry, looked up): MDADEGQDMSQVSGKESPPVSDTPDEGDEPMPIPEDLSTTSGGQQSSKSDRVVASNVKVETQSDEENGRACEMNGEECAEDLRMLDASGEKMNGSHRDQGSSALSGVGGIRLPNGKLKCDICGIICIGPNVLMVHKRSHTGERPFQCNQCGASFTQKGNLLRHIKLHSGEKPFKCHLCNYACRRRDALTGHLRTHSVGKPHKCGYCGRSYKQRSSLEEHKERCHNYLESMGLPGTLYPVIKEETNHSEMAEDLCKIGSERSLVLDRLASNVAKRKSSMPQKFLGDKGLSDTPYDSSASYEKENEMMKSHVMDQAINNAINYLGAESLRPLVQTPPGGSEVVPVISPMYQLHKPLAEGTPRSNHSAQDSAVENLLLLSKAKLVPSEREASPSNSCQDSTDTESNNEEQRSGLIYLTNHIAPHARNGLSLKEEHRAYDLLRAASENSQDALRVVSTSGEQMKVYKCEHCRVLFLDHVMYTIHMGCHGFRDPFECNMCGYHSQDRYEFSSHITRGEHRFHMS
Description: as §1

[6] = biological target: CK1alpha (Homo sapiens (Human), UniProt P48729); test: selectivity by Western blot in MM1S cells, CK1alpha; type: cell-based; conditions: MM1S cells, 6 hours, 0.3, 3 and 30 μM
Description: as §1

[7] = biological target: CRBN-DDB1 (Homo sapiens (Human), UniProt Q96SW2); test: Homogenous Time-Resolved Fluorescence (HTRF) binding assay to CRBN
Description: Compound activity was monitored in a Homogenous Time-Resolved Fluorescence (HTRF) assay using 1-[5-({2-[2-(2-{[2-(2,6-dioxopiperidin-3-yl)-1,3-dioxo-2,3-dihydro-1H-isoindol-4-yl]oxy}acetamido)ethoxy]ethyl}carbamoyl)pentyl]-3,3-dimethyl-2-[(1E,3E)-5-[(2E)-1,3,3-trimethyl-5-sulfo-2,3-dihydro-1H-indol-2-ylidene]penta-1,3-dien-1-yl]-3H-indol-1-ium-5-sulfonate as a fluorescent probe. […] Compounds were stored in dry, ambient temperatures at 10 mM. A 10-point, 1:3 dilution series was prepared from 10 mM stock concentrations in Echo-compatible LDV plates. 10 nL of each compound dilution series was dispensed into assays wells using an Echo 650 (Labcyte inc. USA). […] The assay was then allowed to incubate for 30 min at ambient temperature after transferring compound. […] Analysis and IC50 values were derived using KNIME analytics (KNIME Zurich) transformation and fitting within Collaborative Drug Discovery (Collaborative Drug Discovery USA). Ki was derived from the geometric mean of the IC50 values using the Cheng-Prustoff transformation.

[8] = biological target: T1, GSPT1; test: immunofluorescence assay for GSPT1 degradation in CAL-51 cells (Example 10); type: cell-based
Description: The representative compounds were tested in an immunofluorescence assay for their activity to degrade GSPT1. […] Compounds were stored at 10 mM DMSO stocks. […] Cells were subsequently rinsed with PBS and fixed in 10% Formalin solution (50 μl, Sigma HT5011)) for 20 mins at room temperature. […] Following three further PBS washes, 50 μL blocking buffer (1% BSA, Sigma A4503, in PBS) was added for 45 min for signal-to noise reduction. Primary antibody (human GSPT1, Sigma HPA052488) was diluted in blocking buffer (dil.1/300, 35 μL/well) and incubated with the cells overnight at 4° C. […] After three final PBS washes, samples were conserved in 100 μL PBS in the dark, until measurement. Image acquisition was performed on the Operetta High-Content Imager (Perkin-Elmer). […] For the determination of GSPT1 DC50 values, a custom algorithm implemented in the PerkinElmer image analysis software Harmony-Acapella® was developed. After user-defined setting of adjustment parameters, the analysis was run identically without human intervention for all image fields. DAPI staining of the nuclei was used to determine the location of cells using standard nuclei detection modules. Segmentation artifacts were removed by threshold-based filters for area, roundness and intensity. The outline of the cells was determined analogously from the sum of the normalized, smoothed DAPI and Actin channel, starting from each nucleus. […] GSPT1 degradation (DC50) was calculated after normalization to controls and data import in CDD vault Database, using non-linear regression.
Target sequence in this assay (P15170 whole entry): as the sequence (P15170 whole entry) above
Target sequence in this assay (Q96SW2 whole entry): as the sequence (Q96SW2 whole entry) above
Target sequence in this assay (Q16531 2-1140 partner): as the sequence (Q16531 2-1140 partner) above

[9] = 6 hours, read-out: Activity for GSPT1 degradation, Code (DC50)
[10] = GSPT1 degradation, read-out: DC50 value
[11] = CRBN-DDB1, HTRF, read-out: HTRF Class (HTRF IC50, Cereblon binding)
[12] = CAL-51 cells, 6 h; read-out: IF Class (GSPT1 degradation DC50)

Structure (SMILES)	DC50 [1, 9]	DC50 [1, 10]	ZFP91 degradation [2]	IKZF3 degradation [3]	GSPT1 degradation [4]	IKZF1 degradation [5]	CK1alpha degradation [6]	IC50 [7, 11]	DC50 [8, 12]	IC50 [7]	DC50 ([8]; read-out: IF Class (GSPT1 degradation DC50); CAL-51 cells, 6 h)
COc1cc(C)c(Cl)cc1NC(=O)OCc1ccc2c(c1)C(=O)N(C1CCC(=O)NC1=O)C2 (stereo not shown) [Compound 1]	< 30 nM	≤ 30 nM	A	B (B represents trace degradation at 30 μM (below 20%))	F (F represents degradation at 0.3 μM (>90%))	A	B (B represents trace degradation at 30 μM (below 20%))				
Cc1c(Cl)cc(NC(=O)OCc2ccc3c(c2)C(=O)N(C2CCC(=O)NC2=O)C3)cc1OCCN1CCOCC1 (stereo not shown) [Compound 48]	< 30 nM	≤ 30 nM		B (B represents trace degradation at 30 μM (below 20%))	F (F represents degradation at 0.3 μM (>90%))	A	B (B represents trace degradation at 30 μM (below 20%))				
CCc1ncc(NC(=O)OCc2ccc3c(c2)C(=O)N(C2CCC(=O)NC2=O)C3)cc1C (stereo not shown) [Compound 49]	< 30 nM	≤ 30 nM	B (B represents trace degradation at 30 μM (below 20%))	A	F (F represents degradation at 0.3 μM (>90%))	A	B (B represents trace degradation at 30 μM (below 20%))				
Cc1ccc(NC(=O)OCc2ccc3c(c2)C(=O)N([C@H]2CCC(=O)NC2=O)C3)cc1Cl (single isomer, unassigned) [Compound 175]								> 1000 nM	< 30 nM		
CC(C)(C)c1ccc(NC(=O)OCc2ccc3c(c2)C(=O)N(C2CCC(=O)NC2=O)C3)cc1 (stereo not shown) [Compound 47]	< 30 nM	≤ 30 nM	B (B represents trace degradation at 30 μM (below 20%))	A	F (F represents degradation at 0.3 μM (>90%))	A	B (B represents trace degradation at 30 μM (below 20%))				
O=C1CCC(N2Cc3ccc(COC(=O)Nc4cccc(OC(F)(F)F)c4)cc3C2=O)C(=O)N1 (stereo not shown) [Compound 3]	< 30 nM	≤ 30 nM	B (B represents trace degradation at 30 μM (below 20%))	A	F (F represents degradation at 0.3 μM (>90%))	A	B (B represents trace degradation at 30 μM (below 20%))				
COc1ccc(C(F)(F)C23CC(NC(=O)OCc4ccc5c(c4)C(=O)N(C4CCC(=O)NC4=O)C5)(C2)C3)cc1 (stereo not shown) [Compound 214, (2-(2,6-dioxopiperidin-3-yl)-3-oxoisoindolin-5-yl)methyl(3-(difluoro(4-methoxyphenyl)methyl)bicyclo[1.1.1]pentan-1-yl)carbamate]										< 100 nM	30 to 300 nM
Cc1ccc(NC(=O)OCc2ccc3c(c2)C(=O)N([C@@H]2CCC(=O)NC2=O)C3)cc1Cl (single isomer, unassigned) [Compound 176]								< 100 nM	< 30 nM		
